Measurements from ChEMBL document CHEMBL1140871, “Diaryl-dithiolanes and -isothiazoles: COX-1/COX-2 and 5-LOX-inhibitory, *OH scavenging and anti-adhesive activities” (Bioorg Med Chem, 2009).

How the values were obtained:
[1] = target: T1, Prostaglandin G/H synthase 2 (Homo sapiens, UniProt P35354); test: Inhibition of COX2 in LPS-stimulated human blood
T1 sequence (P35354 whole entry): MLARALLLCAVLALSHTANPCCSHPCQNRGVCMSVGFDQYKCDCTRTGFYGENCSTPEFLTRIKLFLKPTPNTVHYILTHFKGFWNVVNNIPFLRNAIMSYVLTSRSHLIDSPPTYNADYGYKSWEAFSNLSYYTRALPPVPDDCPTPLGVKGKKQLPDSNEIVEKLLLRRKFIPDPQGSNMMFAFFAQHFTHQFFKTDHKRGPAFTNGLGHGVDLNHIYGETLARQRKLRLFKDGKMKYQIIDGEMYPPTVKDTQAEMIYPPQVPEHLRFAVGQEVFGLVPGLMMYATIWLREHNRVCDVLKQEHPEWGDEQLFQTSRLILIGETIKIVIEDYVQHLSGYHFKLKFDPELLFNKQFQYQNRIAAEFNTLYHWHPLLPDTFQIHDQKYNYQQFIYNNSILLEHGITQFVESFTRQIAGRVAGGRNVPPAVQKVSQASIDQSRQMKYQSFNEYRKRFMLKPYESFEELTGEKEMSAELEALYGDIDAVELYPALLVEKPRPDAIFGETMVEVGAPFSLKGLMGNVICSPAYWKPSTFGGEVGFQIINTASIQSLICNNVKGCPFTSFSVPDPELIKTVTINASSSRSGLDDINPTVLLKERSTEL

[2] = Inhibition of 5LOX in bovine polymorphonuclear leucocytes assessed as leukotriene B4 formation; type: cell-based; conditions: Bos taurus
[3] = system: MONO-MAC-6; test: Inhibition of TNF-alpha-stimulated adhesion of human MM6 cells to BAEC at 100 uM by static assay relative to control; type: functional
[4] = target: T2, Prostaglandin G/H synthase 1 (Bos taurus, UniProt O62664)
T2 sequence (O62664 whole entry): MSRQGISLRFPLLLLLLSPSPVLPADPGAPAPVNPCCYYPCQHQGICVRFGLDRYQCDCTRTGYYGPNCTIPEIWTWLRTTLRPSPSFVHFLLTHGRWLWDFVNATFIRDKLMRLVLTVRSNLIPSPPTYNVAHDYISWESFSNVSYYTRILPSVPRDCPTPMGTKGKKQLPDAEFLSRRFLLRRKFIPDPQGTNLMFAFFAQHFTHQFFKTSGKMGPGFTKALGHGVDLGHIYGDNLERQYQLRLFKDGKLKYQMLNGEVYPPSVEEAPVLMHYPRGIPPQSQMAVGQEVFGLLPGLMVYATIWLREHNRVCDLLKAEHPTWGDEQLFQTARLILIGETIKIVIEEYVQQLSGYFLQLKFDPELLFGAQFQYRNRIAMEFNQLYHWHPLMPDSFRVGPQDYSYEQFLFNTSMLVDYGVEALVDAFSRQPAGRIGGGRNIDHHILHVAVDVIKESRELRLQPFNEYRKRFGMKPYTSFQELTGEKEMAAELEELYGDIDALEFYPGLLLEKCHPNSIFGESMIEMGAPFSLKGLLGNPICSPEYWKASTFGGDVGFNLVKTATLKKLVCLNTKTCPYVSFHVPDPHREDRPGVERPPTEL
Description: Inhibition of COX1 in bovine platelets assessed as formation of 12-hydroxyheptadecatrienoic acid by HPLC

[5] = species: Bos taurus; conditions: 10 uM
Description: Inhibition of 5LOX in bovine polymorphonuclear leucocytes assessed as leukotriene B4 formation at 10 uM

[6] = system: MONO-MAC-6; test: Inhibition of TNF-alpha-stimulated adhesion of human MM6 cells to BAEC at 30 uM by static assay relative to control; type: functional
[7] = Cytotoxicity against BALB/c mouse polymorphonuclear leukocytes assessed as cell viability after 6 hrs by trypan blue exclusion assay; conditions: read-out: Activity
[8] = system: Mus musculus; test: Effect on compound 48/80-induced leukocyte recruitment in BALB/c mouse peritonitis model assessed as reduction in polymorphonuclear leucocyte count in peritoneal cavity at 50 mg/kg, ip administered 1 hr before compound 48/80 challenge; type: functional; design: scale not given: the % may be the effect or the level left; conditions: route intraperitoneal
[9] = system: Mus musculus; test: Reduction of CD11b protein expression on neutrophils in BALB/c mouse compound 48/80-induced peritonitis model at 50 mg/kg, ip administered 1 hr before compound 48/80 challenge; type: functional; design: scale not given: the % may be the effect or the level left; conditions: route intraperitoneal
[10] = system: MONO-MAC-6; test: Inhibition of TNF-alpha-stimulated adhesion of human MM6 cells to BAEC at 40 uM by static assay relative to control; conditions: MONO-MAC-6, read-out: INH

SMILES	IC50 [1] [µM]	IC50 [2] [µM]	IC50 [4] [µM]	also measured
Oc1ccc(-c2ssc(=S)c2-c2ccc(O)cc2)cc1	> 50	6	20	inhibition at 100 µM [3]: 54%
CS(=O)(=O)c1ccc(-c2ssc(=O)c2-c2ccccc2)cc1	1.1	> 50	8	inhibition [5]: 13%
CS(=O)(=O)c1ccc(-c2c(-c3ccccc3)ssc2=S)cc1	> 50	> 50	20	inhibition at 100 µM [3]: 38%
Cc1ccc(-c2c(-c3ccc(Cl)cc3)ssc2=S)cc1	> 50	20	2	
COc1ccc(-c2sncc2-c2ccc(Cl)cc2)cc1	> 50	20	0.02	
COc1ccc(-c2ssc(=O)c2-c2ccc(OC)cc2)cc1	1	> 50	0.0003	
CC1(C)Cc2c(-c3ccccc3)c(-c3ccc(Cl)cc3)c(CC(=O)O)n2C1 [LICOFELONE]		0.189	0.2	inhibition at 30 µM [6]: 56%
Cc1ccc(-c2ssc(=S)c2-c2ccc(Cl)cc2)cc1	50	> 50	0.006	
O=C(O)Cc1ccccc1Nc1c(Cl)cccc1Cl [DICLOFENAC]		> 50		
COc1ccc(-c2sncc2-c2ccc(C)cc2)cc1	> 50	8	0.01	
Cc1ccc(-c2ssc(=O)c2-c2ccc(Cl)cc2)cc1	> 50	> 50	0.02	
CS(=O)(=O)c1ccc(-c2ssc(=S)c2-c2ccccc2)cc1	> 50	3		inhibition at 100 µM [3]: 9%
CS(=O)(=O)c1ccc(-c2sncc2-c2ccc(F)cc2)cc1	9	10	50	
CC(Cc1ccc(O)c(O)c1)C(C)Cc1ccc(O)c(O)c1 (stereo not drawn) [NORDIHYDROGUAIARETIC ACID]	> 50	1	50	
Cc1ccc(-c2c(-c3ccc(S(C)(=O)=O)cc3)ssc2=S)cc1	9	9	7	inhibition at 100 µM [3]: 71%; viability at 6 h [7]: 94%; Activity [8]: 49%; Activity [9]: 40%
Cc1ccc(-c2cc(C(F)(F)F)nn2-c2ccc(S(N)(=O)=O)cc2)cc1 [CELECOXIB]				inhibition at 40 µM [10]: 85%
CS(=O)(=O)c1ccc(-c2ssc(=S)c2-c2ccc(F)cc2)cc1	> 50	20	> 50	inhibition at 100 µM [3]: 85%
CS(=O)(=O)c1ccc(-c2c(-c3ccccc3)ssc2=O)cc1	> 50	> 50	8	
Clc1ccc(-c2cnsc2-c2ccc(Cl)cc2)cc1	4		0.1	
COc1ccc(-c2cnsc2-c2ccc(Cl)cc2)cc1		50	0.07	
Cc1ccc(-c2sncc2-c2ccc(Cl)cc2)cc1		> 50	0.2	
Cc1ccc(-c2c(-c3ccc(Cl)cc3)ssc2=O)cc1	> 50	> 50	0.2	
Cc1ccc(-c2ssc(=S)c2-c2ccc(S(C)(=O)=O)cc2)cc1	> 50	> 50	0.6	inhibition at 100 µM [3]: 26%
Cc1ccc(-c2cnsc2-c2ccc(Cl)cc2)cc1	> 50	50	0.04	
COc1ccc(-c2ssc(=S)c2-c2ccc(OC)cc2)cc1	20	10	0.03	
COc1ccc(-c2cnsc2-c2ccc(OC)cc2)cc1	0.8	20	0.003	
Oc1ccc(-c2cnsc2-c2ccc(O)cc2)cc1	> 50	> 50	1	
